This is an account of results in ChEMBL document CHEMBL5360555, “Structure-based discovery of novel α-aminoketone derivatives as dual p53-MDM2/MDMX inhibitors for the treatment of cancer” (Eur J Med Chem, 2023).

Structures are written as SMILES. pIC50, pKi: −log10 of the molar value. Active and inactive are the calls of the source. No cut-off for these calls is given here.

In series [1] the test system is SH-SY5Y. Description: Inhibition of cell invasion in human SH-SY5Y cells measured using transwell chamber by crystal violet staining based microscopic analysis. The class given is functional. Conditions: dose 0.2-0.6 µM.
Series [2] can be described thus: Cytotoxicity against human BEAS-2B cells incubated for 72 hrs by CCK-8 assay. Format: toxicity, cell-based. On the technique in general: Tetrazolium assays rely on reduction of a dye to a coloured formazan, in cell work by metabolically active cells.
Series [3] deals with SH-SY5Y. Kind of series: Inhibition of cell migration in human SH-SY5Y cells measured using transwell chamber by crystal violet staining based microscopic analysis. Conditions: dose 0.2-0.6 µM. Format: functional.
Series [4] concerns HCT-116. Kind of series: Antiproliferative activity against human HCT-116 cells overexpressing MDM2 assessed as cell growth inhibition incubated for 72 hrs by CCK-8 assay. Format: functional, cell-based. To be noted: HCT-116, 72 h.
Series [5] concerns SJSA-1. Kind of series: Antiproliferative activity against human SJSA-1 cells overexpressing MDM2 assessed as cell growth inhibition incubated for 72 hrs by CCK-8 assay. Format: functional, cell-based. Conditions: SJSA-1, 72 h.
Series [6] has as its target T1, Protein Mdm4 (Homo sapiens, UniProt O15151).
T1 sequence (O15151 whole entry): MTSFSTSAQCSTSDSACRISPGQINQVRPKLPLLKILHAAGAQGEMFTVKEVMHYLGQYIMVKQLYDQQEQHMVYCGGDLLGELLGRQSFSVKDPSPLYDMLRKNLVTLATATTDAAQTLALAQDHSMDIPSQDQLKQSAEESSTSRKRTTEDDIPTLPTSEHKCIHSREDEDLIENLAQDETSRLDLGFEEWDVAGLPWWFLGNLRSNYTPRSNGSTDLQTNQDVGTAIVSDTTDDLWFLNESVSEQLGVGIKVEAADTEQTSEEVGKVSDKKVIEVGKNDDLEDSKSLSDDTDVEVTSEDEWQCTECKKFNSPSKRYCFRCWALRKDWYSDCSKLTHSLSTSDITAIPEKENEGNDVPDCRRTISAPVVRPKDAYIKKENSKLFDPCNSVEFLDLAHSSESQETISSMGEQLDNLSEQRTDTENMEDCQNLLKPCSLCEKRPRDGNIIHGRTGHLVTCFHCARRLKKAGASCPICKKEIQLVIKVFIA
Description: Binding affinity to MDMX (1 to 118 residues) (unknown origin) assessed as inhibition constant incubated for 1 hr measured by fluorescence polarization assay. For orientation: Polarisation of emitted light reports the rotation of a fluorescent probe.

In series [7] the test system is SH-SY5Y. Description: Antiproliferative activity against human SH-SY5Y cells overexpressing MDMX assessed as cell growth inhibition incubated for 72 hrs by CCK-8 assay. The class given is functional, cell-based.
Series [8] deals with HCT-116. Kind of series: Inhibition of colony formation in human HCT-116 cells incubated at 0.6 uM for 8 to 15 days measured by crystal violet staining based microscopic analysis. Format: functional, cell-based. To be noted: time 8-15 day.
The subject of series [9] is HCT-116. Description: Inhibition of cell invasion in human HCT-116 cells measured using transwell chamber by crystal violet staining based microscopic analysis. Format: functional. Conditions: dose 0.2-0.6 µM.
Series [10] concerns HCT-116. Kind of series: Inhibition of cell migration in human HCT-116 cells measured using transwell chamber by crystal violet staining based microscopic analysis. Format: functional. To be noted: dose 0.2-0.6 µM.
The target of series [11] is E3 ubiquitin-protein ligase Mdm2 (Homo sapiens, UniProt Q00987). Kind of series: Binding affinity to MDM2 (1 to 118 residues) (unknown origin) assessed as inhibition constant incubated for 1 hr measured by fluorescence polarization assay.
A short description of series [12]: Antiproliferative activity against human HCT116-p53-null cells overexpressing MDMX assessed as cell growth inhibition incubated for 72 hrs by CCK-8 assay. The class given is functional, cell-based.
The test system of series [13] is SH-SY5Y. Kind of series: Inhibition of colony formation in human SH-SY5Y cells incubated at 0.6 uM for 8 to 15 days measured by crystal violet staining based microscopic analysis. Conditions: time 8-15 day. The class given is functional, cell-based.
Series [14] is described as follows: Cytotoxicity against human LO2 cells incubated for 72 hrs by CCK-8 assay. Format: toxicity, cell-based, L02.

E3 ubiquitin-protein ligase Mdm2, sequence (Q00987 whole entry, the tested form may be a part): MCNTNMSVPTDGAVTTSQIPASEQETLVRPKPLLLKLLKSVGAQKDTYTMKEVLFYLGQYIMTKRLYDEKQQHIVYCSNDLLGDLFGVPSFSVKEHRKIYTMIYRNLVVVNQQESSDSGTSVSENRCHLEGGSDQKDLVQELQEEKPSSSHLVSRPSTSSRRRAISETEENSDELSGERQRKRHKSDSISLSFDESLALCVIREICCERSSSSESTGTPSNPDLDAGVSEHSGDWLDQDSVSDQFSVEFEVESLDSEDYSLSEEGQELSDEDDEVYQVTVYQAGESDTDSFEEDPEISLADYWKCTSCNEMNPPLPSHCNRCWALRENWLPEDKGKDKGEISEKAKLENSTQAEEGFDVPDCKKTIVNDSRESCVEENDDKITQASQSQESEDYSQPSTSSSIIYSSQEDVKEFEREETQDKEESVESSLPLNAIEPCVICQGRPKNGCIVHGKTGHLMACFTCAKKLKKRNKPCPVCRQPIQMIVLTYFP

As for `CN(C)C1CCN(C(=O)CCC(=O)N(c2ccc(Cl)cc2)C(C(=O)c2ccc(Cl)cc2)c2ccc(F)cc2Cl)CC1` (centres undefined), the inhibition entry in series [1], in series [3], in series [9] and in [10] was “Dose-Dependent Effect” each time. Also, the IC50 at 72 h is 16.3 µM in series [2] and 12.7 µM in [14]. Further, the pIC50 in series [4] is 6.14; in [5], 6.19; in series [7], 6.16; in series [12], 4.87. The pKi in series [6] is 5.46; in series [11] it was 6.55. Besides, the inhibition entry in series [8] and in series [13] was “Active” throughout.

For `CC(C)(C)OC(=O)N1CCN(C(=O)CCC(=O)N(c2ccc(Cl)cc2)C(C(=O)c2ccc(Cl)cc2)c2ccc(F)cc2Cl)CC1` (centres undefined), the pIC50 in [4] is 5.00; in series [5] it was 5.02; in series [7], 4.93; in [12] it was 4.76. Moreover, the pKi was 4.43 in [6] and 6.14 in series [11].

With `COc1ccc(S(=O)(=O)N(c2ccc(Cl)cc2)C(C(=O)c2ccc(Cl)cc2)c2ccc(F)cc2Cl)cc1` (centres undefined), the pIC50 in [4] was 4.92; in series [5], 4.98; in series [7], 5.02; in series [12] it was 4.52. For the same compound, the negative logarithm of the Ki (pKi) in [6] is 4.81; in series [11] it was 6.19.

Regarding `CC(=O)N1CCN(C(=O)CCC(=O)N(c2ccc(Cl)cc2)C(C(=O)c2ccc(Cl)cc2)c2ccc(F)cc2Cl)CC1` (centres undefined), the pIC50 in series [4] was 5.38; in [5] it was 5.42; in series [7], 5.39; in series [12], 4.57. Moreover, the results for the negative logarithm of the Ki (pKi) in [6] and in series [11] were 5.13 and 6.46, respectively.

Turning to `O=C(O)c1ccc(C(=O)N(c2ccc(Cl)cc2)C(C(=O)c2ccc(Cl)cc2)c2ccc(F)cc2Cl)cc1` (centres undefined), the negative-log IC50 (pIC50) was 5.65 in [4], 5.71 in series [5], 5.99 in series [7] and 4.78 in series [12]. Also, the negative-log Ki (pKi) in series [6] was 5.37; in series [11], 6.49.

For `O=C(c1ccc(Cl)cc1)C(c1ccc(F)cc1Cl)N(C(=O)CCC(=O)N1CCN(CCO)CC1)c1ccc(Cl)cc1` (centres undefined), the pIC50 in series [4] is 5.40; in [5] it was 5.36; in series [7], 5.35; in series [12], 4.81. Moreover, the figures for the pKi in series [6] and in [11] were 4.94 and 6.32, respectively.

For orientation: IC50 means the point on the concentration scale where inhibition reaches its midpoint. By pIC50 is commonly meant the negative decadic logarithm of the IC50, by convention in mol/L. The term pKi denotes −log10 of the Ki, conventionally taken in molar units.
